The values below are quoted from earlier work in US20030116748A1, “Environmentally friendly compositions having anti-icing, deicing or graffiti prevention properties” (priority 1995, published 2003).

Like-named read-outs stand apart in the source and are kept apart here.

For series [1] the following is noted: for OSHA PEL: 8 hour time-weighted average.
For series [2] the following is noted: individual component at full concentration.

Take `OCCO` [Ethylene Glycol]: the “Permissible concentration limits, Water” value runs as follows: (Arizona, Massachusetts, Maine) 5.50 (Arizona, mg/L; (Connecticut) 0.10 (Connecticut) mg/L; (New Jersey) 0.29 (New Jersey) mg/L; (U.S. EPA) 0.14 (U.S. EPA) mg/L. Further, the “Permissible concentration limits, Air” value (Federal) is listed as 125 (Federal) mg/m^3; the “Permissible concentration limits, Air” value (Massachusetts) is recorded as 0.17 mg/m^3; the “Permissible concentration limits, Air” value (Nevada) is recorded as 2.98 (Nevada) mg/m^3; the “Permissible concentration limits, Air” value (North Dakota) is given as 1.25 (North mg/m^3; the “Permissible concentration limits, Air” value (Virginia) is reported as 1.00 (Virginia) mg/m^3.

For `CC(C)O` [Example 2-Propanol, 2-Propanol], the “OSHA PEL” value in series [1] is listed as 400 ppm; in series [1] (value in brackets) it was 980 mg/m^3. Besides, the NIOSH in series [1] (10 hour time-weighted average) was 400 ppm. For the same compound, the “NIOSH (STEL)” value in series [1] (Short Term Exposure Limit) is 500 ppm. Besides, in series [1] (time-weighted average), the “ACGIH TLV” value is given as 400 ppm. Moreover, the “Solubility in Water” value in series [2] was “miscible”.

On to `OCC(O)CO` [Glycerin, 1,2,3-Propanetriol], for which the “Solubility in Water” value in series [2] is listed as “miscible”.

Take `CC(O)CO` (centres unmarked) [Propylene Glycol, 1,2-propanediol]: the “Permissible concentration limits, Air” value (Federal) was 156 (Federal) mg/m^3.
